Among the test systems are SF-539 CNS; SK-MEL-28 melanoma; OVCAR-5 ovarian; PC-3 prostate; SNB-75 CNS; NCI-H226 lung; HL-60(TB) leukemia; SNB-19 CNS; UO-31 renal; LOX IMVI melanoma; MDA-MB-435; MOLT-4 leukemia; HOP-92 NSCLC; A498 renal; U251 CNS; NCI-H522 lung; RXF 393 renal.
What all share (experiment): NCI-60 cell line screen, 48 h

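Compound exposure: 48 hours, 5 concentrations, 96-well plates. TGI denotes the concentration required for complete inhibition of growth.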

Turning to `NC(N)=N/N=C/c1c(-c2ccccc2[N+](=O)[O-])nc2sccn12`, the TGI is 37.6 µM in the test on SF-539 CNS; > 100 µM with SK-MEL-28 melanoma; > 100 µM with OVCAR-5 ovarian; 71.1 µM in the test on PC-3 prostate; 34.2 µM in the test with SNB-75 CNS; 39.1 µM in the test with NCI-H226 lung. Further, the TGI in the test with HL-60(TB) leukemia was 40.4 µM; with SNB-19 CNS it was 77.4 µM; in the test on UO-31 renal, 90.3 µM; in the test on LOX IMVI melanoma it was 44.4 µM; with MDA-MB-435 it was 35.1 µM; in the test on MOLT-4 leukemia it was 46 µM. The TGI in the test with HOP-92 NSCLC was > 100 µM; with A498 renal, 37.7 µM; in the test on U251 CNS, 31.2 µM; in the test with NCI-H522 lung, 39.8 µM; in the test with RXF 393 renal it was 32.4 µM.

Consider `O=C1c2ccccc2-c2nnc3c(c21)Cc1ccccc1C3`, for which the TGI in the test with SF-539 CNS, in the test on SK-MEL-28 melanoma, in the test with OVCAR-5 ovarian, with PC-3 prostate, with SNB-75 CNS and in the test with NCI-H226 lung was > 10 µM in each case. The TGI in the test with HL-60(TB) leukemia, in the test with SNB-19 CNS, in the test with UO-31 renal, in the test with LOX IMVI melanoma, in the test with MDA-MB-435 and with MOLT-4 leukemia was > 10 µM each time. Further, the TGI with HOP-92 NSCLC, with A498 renal, in the test with U251 CNS, in the test on NCI-H522 lung and in the test with RXF 393 renal was > 10 µM in each case.

Regarding `CN1CCN(c2cc3[nH]c4cc(O)cc(O)c4c(=O)c3cc2N)CC1`, the TGI with SF-539 CNS is 17.4 µM; with SK-MEL-28 melanoma, 83.4 µM; in the test with OVCAR-5 ovarian it was > 100 µM; in the test on PC-3 prostate it was 52.7 µM; with SNB-75 CNS, 45.1 µM; with NCI-H226 lung, 5.25 µM. For the same compound, the TGI with HL-60(TB) leukemia was > 100 µM; in the test on SNB-19 CNS it was > 100 µM; in the test on UO-31 renal, 67.3 µM; in the test with LOX IMVI melanoma, 41.5 µM; in the test with MDA-MB-435, 42.4 µM; in the test with MOLT-4 leukemia, 4.58 µM. Moreover, the TGI was 44 µM in the test with HOP-92 NSCLC; 73.2 µM in the test on A498 renal; 68.5 µM in the test with U251 CNS; 63.5 µM in the test with NCI-H522 lung; 49 µM with RXF 393 renal.

On to `Cc1cn([C@@H]2O[C@H](CO[Si](C)(C)C(C)(C)C)[C@]3(O[C@H]3C(=O)NO)[C@H]2O[Si](C)(C)C(C)(C)C)c(=O)[nH]c1=O`, for which the TGI in the test with SF-539 CNS is 2.83 µM; in the test on SK-MEL-28 melanoma, 3.33 µM; with OVCAR-5 ovarian, 3.33 µM; in the test on PC-3 prostate it was 5.66 µM; in the test with SNB-75 CNS it was 3.71 µM; in the test on NCI-H226 lung, 3.69 µM. Also, the TGI in the test with HL-60(TB) leukemia is 3.57 µM; with SNB-19 CNS, 3.18 µM; in the test on UO-31 renal, 3.28 µM; with LOX IMVI melanoma, 3.1 µM; in the test on MDA-MB-435, 4.38 µM; in the test with MOLT-4 leukemia, 4.62 µM. For the same compound, the TGI in the test on HOP-92 NSCLC worked out at 4.17 µM; in the test with A498 renal, 3.33 µM; with U251 CNS it was 3.07 µM; with NCI-H522 lung, 3.12 µM; with RXF 393 renal, 3.34 µM.

As to `C#CCOC(=O)C(N)CC(N)=O` (centres undefined), the TGI with SF-539 CNS, in the test on SK-MEL-28 melanoma, in the test with OVCAR-5 ovarian, with PC-3 prostate, in the test on SNB-75 CNS and in the test with NCI-H226 lung was > 100 µM in each case. For the same compound, the TGI with HL-60(TB) leukemia, in the test on SNB-19 CNS, in the test on UO-31 renal, in the test on LOX IMVI melanoma, in the test with MDA-MB-435 and in the test with MOLT-4 leukemia was > 100 µM throughout. Besides, the TGI with HOP-92 NSCLC, in the test on A498 renal, in the test with U251 CNS, in the test on NCI-H522 lung and in the test on RXF 393 renal was > 100 µM throughout.

For `CC(C#N)(c1ccccc1)N(CCc1ccccc1)C(=O)Oc1ccccc1` (centres undefined), the TGI was > 100 µM with SF-539 CNS; > 100 µM in the test on SK-MEL-28 melanoma; > 100 µM in the test with OVCAR-5 ovarian; > 100 µM in the test with PC-3 prostate; 81.6 µM with SNB-75 CNS; > 100 µM with NCI-H226 lung. Besides, the TGI in the test on HL-60(TB) leukemia, with SNB-19 CNS, in the test with UO-31 renal, with LOX IMVI melanoma, in the test with MDA-MB-435 and in the test on MOLT-4 leukemia was > 100 µM in each case. The TGI was 65 µM in the test with HOP-92 NSCLC; > 100 µM with A498 renal; > 100 µM in the test with U251 CNS; > 100 µM in the test with NCI-H522 lung; > 100 µM in the test with RXF 393 renal.

Consider `NS(=O)(=O)c1ccc(NC(=S)NC(=O)Nc2ccc(Cl)c(Cl)c2)cc1`, for which the TGI with SF-539 CNS was 39.7 µM; in the test on SK-MEL-28 melanoma, 43.5 µM; in the test with OVCAR-5 ovarian, 27.9 µM; in the test on PC-3 prostate, 30 µM; in the test with SNB-75 CNS, 28.8 µM; in the test with NCI-H226 lung, 43.8 µM. In addition, the TGI in the test with HL-60(TB) leukemia amounted to 33.5 µM; in the test with SNB-19 CNS, 24.5 µM; in the test on UO-31 renal, 9.66 µM; in the test with LOX IMVI melanoma, 19.1 µM; in the test with MDA-MB-435, 35.7 µM; with MOLT-4 leukemia it was 49.6 µM. For the same compound, the TGI is 48.6 µM with HOP-92 NSCLC; 7.51 µM in the test on A498 renal; 37.8 µM in the test on U251 CNS; 37.3 µM with NCI-H522 lung; 35.4 µM in the test on RXF 393 renal.

(Values after PubChem BioAssay (NCI).)
